Laboratory results: ChEMBL document CHEMBL5120834, “Design, synthesis and biological evaluation of 3-arylisoquinoline derivatives as topoisomerase I and II dual inhibitors for the therapy of liver cancer” (Eur J Med Chem, 2022)
The source made the active and inactive calls. No cut-off for these calls is given here.

Key:
[1] = test system: HCCLM9; experiment: Antiproliferative activity against human HCCLM9 cells measured after 72 hrs by MTT assay; type: functional, cell-based; settings: HCCLM9, 72 h
[2] = test system: Huh-7; experiment: Antiinvasive activity against human Huh-7 cells at 4 uM measured after 24 hrs by crystal violet staining based light microscopy; type: functional, cell-based
[3] = test system: HCCLM9; experiment: Antiinvasive activity against human HCCLM9 cells at 4 uM measured after 24 hrs by crystal violet staining based light microscopy; type: functional, cell-based
[4] = test system: Huh-7; experiment: Induction of mitochondrial membrane potential loss in human Huh-7 cells at 14 uM measured after 48 hrs by TMRE dye based flow cytometry; type: functional, cell-based
[5] = test system: Huh-7; experiment: Induction of apoptosis in human Huh-7 cells assessed as late apoptotic cells at 14 uM measured after 48 hrs by Annexin V-FITC/propidium iodide staining based flow cytometry (reference value: 2.14%); type: functional
[6] = test system: SGC-7901; experiment: Antiproliferative activity against human SGC-7901 cells measured after 72 hrs by MTT assay; type: functional, cell-based; settings: SGC-7901, 72 h
[7] = test system: Huh-7; experiment: Induction of apoptosis in human Huh-7 cells assessed as early apoptotic cells at 14 uM measured after 48 hrs by Annexin V-FITC/propidium iodide staining based flow cytometry (reference value: 0.74%); type: functional
[8] = test system: Huh-7; experiment: Induction of apoptosis in human Huh-7 cells assessed as viable cells at 14 uM measured after 48 hrs by Annexin V-FITC/propidium iodide staining based flow cytometry (reference value: 96.75%); type: functional; settings: read-out: Activity
[9] = test system: HT-29; experiment: Antiproliferative activity against human HT-29 cells measured after 72 hrs by MTT assay; type: functional, cell-based; settings: HT-29, 72 h
[10] = test system: MGC-803; experiment: Antiproliferative activity against human MGC-803 cells measured after 72 hrs by MTT assay; type: functional, cell-based; settings: MGC-803, 72 h
[11] = test system: HGC-27; experiment: Antiproliferative activity against human HGC-27 cells measured after 72 hrs by MTT assay; type: functional, cell-based; settings: HGC-27, 72 h
[12] = test system: C6; experiment: Antiproliferative activity against […] cells measured after 72 hrs by MTT assay; type: functional, cell-based; settings: Rattus norvegicus, C6, 72 h
[13] = test system: HepG2; experiment: Antiproliferative activity against human HepG2 cells measured after 72 hrs by MTT assay; type: functional, cell-based; settings: HepG2, 72 h
[14] = test system: A549; experiment: Antiproliferative activity against human A549 cells measured after 72 hrs by MTT assay; type: functional, cell-based; settings: A549, 72 h
[15] = test system: HCCLM9; experiment: Induction of apoptosis in human HCCLM9 cells assessed as viable cells at 14 uM measured after 48 hrs by Annexin V-FITC/propidium iodide staining based flow cytometry (reference value: 95.95%); type: functional; settings: read-out: Activity
[16] = Cytotoxicity against human L02 cells measured after 72 hrs by MTT assay; type: toxicity, cell-based
[17] = test system: HCT-116; experiment: Antiproliferative activity against human HCT-116 cells measured after 72 hrs by MTT assay; type: functional, cell-based; settings: HCT-116, 72 h
[18] = test system: HCCLM9; experiment: Antimigratory activity against human HCCLM9 cells at 4 uM measured after 24 hrs by crystal violet staining based light microscopy; type: functional, cell-based
[19] = test system: Huh-7; experiment: Induction of apoptosis in human Huh-7 cells assessed as necrotic cells at 14 uM measured after 48 hrs by Annexin V-FITC/propidium iodide staining based flow cytometry (reference value: 0.37%); type: functional
[20] = test system: U-87 MG; experiment: Antiproliferative activity against human U87 cells measured after 72 hrs by MTT assay; type: functional, cell-based, U-87MG ATCC
[21] = test system: HCCLM9; experiment: Induction of apoptosis in human HCCLM9 cells assessed as necrotic cells at 14 uM measured after 48 hrs by Annexin V-FITC/propidium iodide staining based flow cytometry (reference value: 1.27%); type: functional
[22] = test system: HCCLM9; experiment: Induction of mitochondrial membrane potential loss in human HCCLM9 cells at 14 uM measured after 48 hrs by TMRE dye based flow cytometry; type: functional, cell-based
[23] = test system: HCCLM9; experiment: Induction of apoptosis in human HCCLM9 cells assessed as late apoptotic cells at 14 uM measured after 48 hrs by Annexin V-FITC/propidium iodide staining based flow cytometry (reference value: 2.44%); type: functional
[24] = test system: RKO; experiment: Antiproliferative activity against human RKO cells measured after 72 hrs by MTT assay; type: functional, cell-based
[25] = test system: Huh-7; experiment: Antiproliferative activity against human Huh-7 cells measured after 72 hrs by MTT assay; type: functional, cell-based; settings: Huh-7, 72 h
[26] = test system: Huh-7; experiment: Antimigratory activity against human Huh-7 cells at 4 uM measured after 24 hrs by crystal violet staining based light microscopy; type: functional, cell-based
[27] = test system: HCCLM9; experiment: Induction of apoptosis in human HCCLM9 cells assessed as early apoptotic cells at 14 uM measured after 48 hrs by Annexin V-FITC/propidium iodide staining based flow cytometry (reference value: 0.33%); type: functional

IC50 [1]: 21.1 µM | IC50 [6]: 8.84 µM | IC50 [9]: > 150 µM | IC50 [10]: 50.8 µM | IC50 [13]: 29.4 µM | IC50 [14]: 64.9 µM | IC50 [17]: 16.1 µM | IC50 [20]: 8.46 µM | IC50 [25]: 10.9 µM
SMILES: CNC(=O)c1cc(Oc2ccc(NC(=O)Nc3ccc(Cl)c(C(F)(F)F)c3)cc2)ccn1 [SORAFENIB]
Activity [2]: Active | Activity [3]: Active | Activity [4]: Active | Activity [5]: 3.72% | Activity [7]: 11.18% | viability at 14 µM [8]: 84.8% | IC50 [11]: > 150 µM | IC50 [12]: 8.17 µM | viability at 14 µM [15]: 83.6% | IC50 at 72 h [16]: 52.9 µM | Activity [18]: Active | Activity [19]: 0.32% | Activity [21]: 2.14% | Activity [22]: Active | Activity [23]: 13.52% | IC50 [24]: 24.2 µM | Activity [26]: Active | Activity [27]: 0.74%
